# Where two headings read alike, the source gives them in different places.
# Legend:
# Type in all cases: cell-based
# [1] = test system: cefepime-resistant Klebsiella pneumoniae expressing different types of β-lactamases; experiment: microbe, parasite or virus in culture; settings: for MIC: Klebsiella pneumoniae; for MIC, Cefepime + compound (8 ug/ml): inhibitor at 8 ug/ml
# Description: (§1) The biosafety cabinet was sterilized with ultraviolet light for 30 min. Glycerol tubes were taken out of a −80° C. freezer, and streaks were gently formed in the glycerol tubes using inoculating loops. Bacteria were inoculated onto MHIIA solid plates. The plates were incubated overnight in a 37° C. incubator.
# (§2) 30 μL of compound stock solution was added to column 1 of a 96-well v-bottom plate, and DMSO was added to columns 2-10. Subsequently, 15 μL was transferred from column 1 to column 2 using a pipette and well mixed gently, and then 15 μL of solution was transferred from column 2 to column 3: the serial dilution process proceeded to column 10 (200×β-lactamase inhibitor working solutions were prepared). The antibiotic was diluted with a corresponding solvent to form a 1.6 mg/mL solution.
# [2] = test system: cefepime-resistant Pseudomonas aeruginosa; experiment: MIC in combination with cefepime for drug-resistant bacteria (Test Example 2); settings: read-out: concentration for achieving a bacteriostatic effect where the CPM MIC is fixed at 8 μg/mL
# Description: as §1
# as §2, with “3;” for “3:”
# [3] = test system: cefepime-resistant Klebsiella pneumoniae; experiment: as above; settings: for MIC: Klebsiella pneumoniae, with CPM 8 μg/mL, read-out: concentration for achieving a bacteriostatic effect where the CPM MIC is fixed at 8 μg/mL
# Description: as §1
# as §2, with “3;” for “3:”
# [4] = test system: cefepime-resistant Escherichia coli; experiment: as above; settings: for MIC: Escherichia coli, with CPM 8 μg/mL, read-out: concentration for achieving a bacteriostatic effect where the CPM MIC is fixed at 8 μg/mL
# Description: as §1
# as §2, with “3;” for “3:”
# [5] = test system: cefepime-resistant Acinetobacter baumannii; experiment: as above; settings: Acinetobacter baumannii, with CPM 8 μg/mL, read-out: concentration for achieving a bacteriostatic effect where the CPM MIC is fixed at 8 μg/mL
# Description: as §1
# as §2, with “3;” for “3:”
# [6] = test system: Escherichia coli ARLG-2829 (Urine); experiment: MIC of β-lactamase inhibitors in the presence of antibiotic (Test Example 1); settings: in the presence of Cefepime (8 ug/mL)
# Description: (§3) • 1) The antibiotics cefepime and biapenem (purchased from MCE Inc.).
# as §1
# as §2, with “two antibiotics were” for “antibiotic was”, “with” for “with a”, “solvents” for “solvent”, “form” for “form a”, “solutions.” for “solution.”
# (§4) 1 μL of 200×B-lactamase inhibitor solution and 1 μL of 1.6 mg/mL antibiotic were added to a new 96-well round-bottom plate. The plate that had been incubated overnight was taken out of the incubator, and several monoclones were picked into normal saline using an inoculating loop. The bacterial solution was adjusted to a concentration of about 1.0×10^8CFU/mL and diluted 200-fold with medium, and 198 μL of the resulting bacterial solution was added to the test plate. The test plate was incubated in a 37° C.incubator for 18-24 h. The 96-well plate that had been incubated for 20 h was taken out of the incubator. The concentration that prevented visible bacterial growth was defined as the minimum inhibitory concentration.
# [7] = test system: Klebsiella pneumoniae ATCC BAA-1705; experiment: as above
# Description: as §3, §1
# as §2, with “two antibiotics were” for “antibiotic was”, “with” for “with a”, “solvents” for “solvent”, “form” for “form a”, “solutions.” for “solution.”
# as §4
# [8] = test system: Klebsiella pneumoniae ATCC BAA-2472; experiment: as above
# Description: as §3, §1
# as §2, with “two antibiotics were” for “antibiotic was”, “with” for “with a”, “solvents” for “solvent”, “form” for “form a”, “solutions.” for “solution.”
# as §4
# [9] = summary in words of Test Example 2
# [10] = in the presence of Biapenem (8 ug/mL)
# [11] = in the presence of Cefepime (8 ug/mL)
smiles,measurement,setting,value
O=C(O)c1c(F)ccc2c1OB(O)[C@@H]1C[C@H]21 [QPX-7728],MIC,"[1]; ATCCBAA1705, read-out: MIC, single substance (1-1-Na, QPX7728, CPM), strain ATCC BAA-1705, KPC-2, TEM, SHV, Class A",32 µg/mL
same,MIC,"[1]; ATCCBAA1898, read-out: MIC, single substance (1-1-Na, QPX7728, CPM), strain ATCC BAA-1898, KPC-2, Class A",32 µg/mL
same,MIC,"[1]; ATCCBAA1899, read-out: MIC, single substance (1-1-Na, QPX7728, CPM), strain ATCC BAA-1899, KPC-2, Class A",32 µg/mL
same,MIC,"[1]; ATCCBAA2343, read-out: MIC, single substance (1-1-Na, QPX7728, CPM), strain ATCC BAA-2343, KPC, Class A",32 µg/mL
same,MIC,"[1]; ATCCBAA2470, read-out: MIC, single substance (1-1-Na, QPX7728, CPM), strain ATCC BAA-2470, NDM-1, Class B",16 µg/mL
same,MIC,"[1]; read-out: MIC, single substance (1-1-Na, QPX7728, CPM), strain ARLG-1127 (Urine), KPC, KPC-3, TEM, TEM-1, Class A",64 µg/mL
same,MIC,"[1]; read-out: MIC, single substance (1-1-Na, QPX7728, CPM), strain ARLG-1195, CTM-1 group, SHV, NDM, Class A, B",32 µg/mL
same,MIC,"[1]; read-out: MIC, single substance (1-1-Na, QPX7728, CPM), strain ARLG-1196, CTM-1 group, SHV, NDM, TEM, Class A, B",32 µg/mL
same,"MIC, Cefepime + compound (8 ug/ml)","[1]; strain ARLG-1127 (Urine), KPC, KPC-3, TEM, TEM-1, Class A",≤0.125 µg/mL
same,"MIC, Cefepime + compound (8 ug/ml)","[1]; strain ARLG-1195, CTM-1 group, SHV, NDM, Class A, B",≤0.125 µg/mL
same,"MIC, Cefepime + compound (8 ug/ml)","[1]; strain ARLG-1196, CTM-1 group, SHV, NDM, TEM, Class A, B",≤0.125 µg/mL
same,"MIC, Cefepime + compound (8 ug/ml)","[1]; strain ATCC BAA-1705, KPC-2, TEM, SHV, Class A",≤0.125 µg/mL
same,"MIC, Cefepime + compound (8 ug/ml)","[1]; strain ATCC BAA-1898, KPC-2, Class A",<0.125 µg/mL
same,"MIC, Cefepime + compound (8 ug/ml)","[1]; strain ATCC BAA-1899, KPC-2, Class A",<0.125 µg/mL
same,"MIC, Cefepime + compound (8 ug/ml)","[1]; strain ATCC BAA-2343, KPC, Class A",≤0.125 µg/mL
same,"MIC, Cefepime + compound (8 ug/ml)","[1]; strain ATCC BAA-2470, NDM-1, Class B",≤0.125 µg/mL
same,restore to cefepime antibacterial activity against cefepime-resistant Klebsiella pneumoniae,[1]; summary in words of Test Example 3 (sentence runs over b277-b278),significantly
same,MIC,"[2]; strain FDA-CDC AR-BANK#0246, with CPM 8 μg/mL",> 16 µg/mL
same,MIC,"[2]; strain FDA-CDC AR-BANK#0439, with CPM 8 μg/mL",> 16 µg/mL
same,MIC,"[2]; strain FDA-CDC AR-BANK#0441, with CPM 8 μg/mL",2 µg/mL
same,MIC,"[2]; strain FDA-CDC AR-BANK#0444, with CPM 8 μg/mL",4 µg/mL
same,MIC,[3]; strain FDA-CDC AR-BANK#0003,0.0312 µg/mL
same,MIC,[3]; strain FDA-CDC AR-BANK#0076,0.25 µg/mL
same,MIC,[3]; strain FDA-CDC AR-BANK#0080,0.5 µg/mL
same,MIC,[3]; strain FDA-CDC AR-BANK#0126,≤ 0.0156 µg/mL
same,MIC,[3]; strain FDA-CDC AR-BANK#0158,0.5 µg/mL
same,restoring to cefepime antibacterial activity against cefepime-resistant Klebsiella pneumoniae,[3]; [9],significantly restore to cefepime antibacterial activity
same,MIC,[4]; strain FDA-CDC AR-BANK#0055,0.5 µg/mL
same,MIC,[4]; strain FDA-CDC AR-BANK#0114,≤ 0.0156 µg/mL
same,MIC,[4]; strain FDA-CDC AR-BANK#0370,0.125 µg/mL
same,MIC,[4]; strain FDA-CDC AR-BANK#0371,≤ 0.0156 µg/mL
same,restoring to cefepime antibacterial activity against cefepime-resistant Escherichia coli,[4]; [9],significantly restore to cefepime antibacterial activity
same,MIC,[5]; strain FDA-CDC AR-BANK#0033,> 16 µg/mL
same,MIC,[5]; strain FDA-CDC AR-BANK#0035,> 16 µg/mL
same,MIC,[5]; strain FDA-CDC AR-BANK#0078,16 µg/mL
same,Minimum inhibitory concentration,[6],1 µg/mL
same,Minimum inhibitory concentration,[7]; [10],≤0.03125 µg/mL
same,Minimum inhibitory concentration,[7]; [11],0.25 µg/mL
same,Minimum inhibitory concentration,[8]; [10],8 µg/mL
same,Minimum inhibitory concentration,[8]; [11],16 µg/mL
